Reference: US8258151B2, “3-aminoimidazo [1,2-A] pyridine derivatives as SGLT inhibitors” (Merck Patent GmbH, priority 2006, dated 2012)

Legend:
SGLT2 = target: T1, SGLT2 (Homo sapiens, UniProt P31639); assay: SGLT2 activity measurement: 14C-AMG uptake in BHK cells transfected with SGLT2; type: cell-based; conditions: AMG 2 mM, 37° C., 90 min
T1 construct: expressed in transfected cells
T1 sequence (P31639 1-672): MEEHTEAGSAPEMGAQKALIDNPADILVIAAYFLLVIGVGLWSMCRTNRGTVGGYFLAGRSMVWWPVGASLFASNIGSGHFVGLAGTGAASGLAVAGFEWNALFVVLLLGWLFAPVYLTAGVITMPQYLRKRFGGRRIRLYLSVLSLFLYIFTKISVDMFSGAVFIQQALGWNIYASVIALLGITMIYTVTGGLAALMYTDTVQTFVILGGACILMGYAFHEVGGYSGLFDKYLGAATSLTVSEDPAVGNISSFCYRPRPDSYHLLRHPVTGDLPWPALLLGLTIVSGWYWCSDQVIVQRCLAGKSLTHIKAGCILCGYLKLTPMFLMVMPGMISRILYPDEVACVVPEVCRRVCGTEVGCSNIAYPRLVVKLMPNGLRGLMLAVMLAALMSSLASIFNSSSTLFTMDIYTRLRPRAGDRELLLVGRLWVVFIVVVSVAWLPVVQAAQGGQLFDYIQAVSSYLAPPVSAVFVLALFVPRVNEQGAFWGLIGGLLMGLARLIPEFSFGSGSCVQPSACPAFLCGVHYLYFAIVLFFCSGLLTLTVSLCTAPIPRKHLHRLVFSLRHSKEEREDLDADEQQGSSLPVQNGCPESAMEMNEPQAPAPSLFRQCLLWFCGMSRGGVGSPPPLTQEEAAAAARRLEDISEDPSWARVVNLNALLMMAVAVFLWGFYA
In short: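 BHK21 cells stably expressing human SGLT2 took up 14C-AMG (added as 2 mM solution) ± compound for 90 min at 37 °C in Na+-containing HEPES/Tris buffer, pH 7.4. Uptake was measured by scintillation counting after lysis. Non-specific uptake was defined in sodium-free sucrose buffer.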

SGLT1 = target: T2, SGLT1 (Homo sapiens, UniProt P13866); assay: SGLT1 activity measurement: 14C-AMG uptake in BHK cells transfected with SGLT1; type: cell-based; conditions: AMG 50 μM, 37° C., 90 min
T2 construct: expressed in transfected cells
T2 sequence (P13866 1-664): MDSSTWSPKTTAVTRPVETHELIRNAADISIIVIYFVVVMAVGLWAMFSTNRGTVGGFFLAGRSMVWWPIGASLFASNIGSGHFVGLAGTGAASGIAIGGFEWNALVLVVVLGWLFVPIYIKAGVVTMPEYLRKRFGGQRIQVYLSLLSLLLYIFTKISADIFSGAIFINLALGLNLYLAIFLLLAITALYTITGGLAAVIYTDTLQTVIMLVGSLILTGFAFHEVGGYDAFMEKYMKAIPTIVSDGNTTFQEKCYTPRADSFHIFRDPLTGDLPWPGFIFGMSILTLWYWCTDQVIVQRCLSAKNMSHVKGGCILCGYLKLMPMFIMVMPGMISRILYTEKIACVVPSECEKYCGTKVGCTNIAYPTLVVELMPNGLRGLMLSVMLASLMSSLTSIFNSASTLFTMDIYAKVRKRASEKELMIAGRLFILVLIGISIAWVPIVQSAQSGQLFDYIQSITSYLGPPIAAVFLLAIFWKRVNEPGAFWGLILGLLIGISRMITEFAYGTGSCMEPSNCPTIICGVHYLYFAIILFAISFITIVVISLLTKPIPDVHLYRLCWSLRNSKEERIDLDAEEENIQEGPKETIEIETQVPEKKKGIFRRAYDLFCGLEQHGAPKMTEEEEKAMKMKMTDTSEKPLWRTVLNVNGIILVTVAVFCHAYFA
In short: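 BHK21 cells stably transfected with human SLC5A1 were incubated with 14C-AMG (added solution at 50 μM) ± compound for 90 min at 37 °C. The buffer was 140 mM NaCl, HEPES/Tris, pH 7.4. Lysed-cell radioactivity was counted by scintillation, and non-specific uptake was measured in sodium-free sucrose buffer.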

SMILES: COc1cc(C)c(-c2nc3ccc(F)cn3c2Nc2c(C)ccc(Cl)c2C)c(OCC(N)=O)c1 [Compound A218, 2-[2-(Aminocarbonylmethoxy)-4-methoxy-6-methylphenyl]-3-(3-chloro-2,6-dimethylphenyl-amino)-6-fluoroimidazo[1,2-a]pyridine]
- IC50 (SGLT2): 0.01 to 1 µM
- IC50 (SGLT1): 1 to 10 µM

SMILES: COc1cc(C)c(-c2nc3ccc(F)cn3c2Nc2c(F)cccc2F)c(OCC(N)=O)c1 [Compound A219, 2-[2-(Aminocarbonylmethoxy)-4-methoxy-6-methylphenyl]-3-(2,6-difluorophenylamino)-6-fluoroimidazo[1,2-a]pyridine]
- IC50 (SGLT2): 0.01 to 1 µM
- IC50 (SGLT1): 1 to 10 µM

SMILES: CCc1cc(OC)cc(OCC(N)=O)c1-c1nc2ccc(F)cn2c1Nc1c(F)cccc1F [Compound A220, 2-[2-(Aminocarbonylmethoxy)-4-methoxy-6-ethylphenyl]-3-(2,6-difluorophenylamino)-6-fluoroimidazo[1,2-a]pyridine]
- IC50 (SGLT2): 0.01 to 1 µM
- IC50 (SGLT1): 1 to 10 µM

SMILES: CCc1cc(OC)cc(OCC(N)=O)c1-c1nc2c(F)cc(F)cn2c1Nc1c(C)cccc1C [Compound A221, 2-[2-(Aminocarbonylmethoxy)-4-methoxy-6-ethylphenyl]-3-(2,6-dimethylphenylamino)-6,8-difluoroimidazo[1,2-a]pyridine]
- IC50 (SGLT2): 0.01 to 1 µM
- IC50 (SGLT1): 1 to 10 µM

SMILES: COc1cc(C)c(-c2nc3ccc(F)cn3c2Nc2c(C)cc(Cl)cc2C)c(OCC(N)=O)c1 [Compound A222, 2-[2-(Aminocarbonylmethoxy)-4-methoxy-6-methylphenyl]-3-(4-chloro-2,6-dimethylphenyl-amino)-6-fluoroimidazo[1,2-a]pyridine]
- IC50 (SGLT2): 0.01 to 1 µM
- IC50 (SGLT1): 1 to 10 µM

SMILES: COc1cc(C)c(-c2nc3ccccn3c2Nc2c(Cl)cc(F)cc2Cl)c(OCC(N)=O)c1 [Compound A224, 2-[2-(Aminocarbonylmethoxy)-4-methoxy-6-methylphenyl]-3-(4-fluoro-2,6-dichlorophenyl-amino)imidazo[1,2-a]pyridine]
- IC50 (SGLT2): 0.01 to 1 µM
- IC50 (SGLT1): 1 to 10 µM

SMILES: COc1cc(C)c(-c2nc3c(F)cc(F)cn3c2Nc2c(Cl)cc(F)cc2Cl)c(OCC(N)=O)c1 [Compound A225, 2-[2-(Aminocarbonylmethoxy)-4-methoxy-6-methylphenyl]-3-(4-fluoro-2,6-dichlorophenyl-amino)-6,8-difluoroimidazo[1,2-a]pyridine]
- IC50 (SGLT2): 0.01 to 1 µM
- IC50 (SGLT1): 1 to 10 µM

SMILES: COc1cc(C)c(-c2nc3c(F)cc(F)cn3c2Nc2c(Cl)cccc2Cl)c(OCC(N)=O)c1 [Compound A226, 2-[2-(Aminocarbonylmethoxy)-4-methoxy-6-methylphenyl]-3-(2,6-dichlorophenylamino)-6,8-difluoroimidazo[1,2-a]pyridine]
- IC50 (SGLT2): 0.01 to 1 µM
- IC50 (SGLT1): 1 to 10 µM

SMILES: CCc1cc(OC)cc(OCC(N)=O)c1-c1nc2c(F)cc(F)c(N)n2c1Nc1c(C)cccc1C [Compound A227, 2-[2-(Aminocarbonylmethoxy)-4-methoxy-6-ethylphenyl]-3-(2,6-dimethylphenylamino)-5-amino-6,8-difluoroimidazo[1,2-a]pyridine]
- IC50 (SGLT2): 0.01 to 1 µM
- IC50 (SGLT1): 1 to 10 µM

SMILES: CCc1cc(OS(=O)(=O)N(C)C)cc(OCC(N)=O)c1-c1nc2ccc(F)cn2c1Nc1c(C)cccc1C [Compound A228, 2-[2-(Aminocarbonylmethoxy)-4-dimethyl-sulfamoyloxy-6-ethylphenyl]-3-(2,6-dimethyl-phenylamino)-6-fluoroimidazo[1,2-a]pyridine]
- IC50 (SGLT2): 0.01 to 1 µM
- IC50 (SGLT1): > 10 µM

SMILES: COc1cc(C)c(-c2nc3ccc(F)cn3c2Nc2ccc(F)cc2F)c(OCC(N)=O)c1 [Compound A229, 2-[2-(Aminocarbonylmethoxy)-4-methoxy-6-methylphenyl]-3-(2,4-difluorophenylamino)-6-fluoroimidazo[1,2-a]pyridine]
- IC50 (SGLT2): 1 to 10 µM
- IC50 (SGLT1): > 10 µM

SMILES: CCc1cc(OCC(N)=O)cc(OCC(N)=O)c1-c1nc2ccc(F)cn2c1Nc1c(C)cccc1C [Compound A230, 2-[2-(Aminocarbonylmethoxy)-4-(amino-carbonylmethoxy)-6-ethylphenyl]-3-(2,6-dimethylphenylamino)-6-fluoroimidazo[1,2-a]-pyridine]
- IC50 (SGLT2): 0.01 to 1 µM
- IC50 (SGLT1): > 10 µM

SMILES: COc1cc(OCC(N)=O)c(-c2nc3ccc(F)cn3c2Nc2c(C)cccc2C)c(C)c1Cl [Compound A231, 2-[2-(Aminocarbonylmethoxy)-5-chloro-4-methoxy-6-methylphenyl]-3-(2,6-dimethylphenyl-amino)-6-fluoroimidazo[1,2-a]pyridine]
- IC50 (SGLT2): 0.01 to 1 µM
- IC50 (SGLT1): 1 to 10 µM

SMILES: COc1cc(C)c(-c2nc3ccc(F)cn3c2Nc2c(C)cccc2[N+](=O)[O-])c(OCC(N)=O)c1 [Compound A232, 2-[2-(Aminocarbonylmethoxy)-4-methoxy-6-methylphenyl]-3-(2-methyl-6-nitrophenylamino)-6-fluoroimidazo[1,2-a]pyridine]
- IC50 (SGLT2): 0.01 to 1 µM
- IC50 (SGLT1): 1 to 10 µM

SMILES: COc1cc(C)c(-c2nc3ccc(F)cn3c2Nc2c(Br)cccc2Br)c(OCC(N)=O)c1 [Compound A233, 2-[2-(Aminocarbonylmethoxy)-4-methoxy-6-methylphenyl]-3-(2,6-dibromophenylamino)-6-fluoroimidazo[1,2-a]pyridine]
- IC50 (SGLT2): 0.01 to 1 µM
- IC50 (SGLT1): > 10 µM

SMILES: COc1cc(C)c(-c2nc3ccc(F)cn3c2Nc2c(C)cc(F)cc2C)c(OCC(N)=O)c1 [Compound A234, 2-[2-(Aminocarbonylmethoxy)-4-methoxy-6-methylphenyl]-3-(2,6-dimethyl-4-fluorophenyl-amino)-6-fluoroimidazo[1,2-a]pyridine]
- IC50 (SGLT2): 0.01 to 1 µM
- IC50 (SGLT1): 1 to 10 µM

SMILES: CCc1cc(OC)cc(OCC(N)=O)c1-c1nc2ccc(F)cn2c1Nc1c(C)cc(F)cc1C [Compound A235, 2-[2-(Aminocarbonylmethoxy)-4-methoxy-6-ethylphenyl]-3-(2,6-dimethyl-4-fluorophenyl-amino)-6-fluoroimidazo[1,2-a]pyridine]
- IC50 (SGLT2): 0.01 to 1 µM
- IC50 (SGLT1): 1 to 10 µM

SMILES: COc1cc(C)c(-c2nc3ccc(F)cn3c2Nc2c(C)cccc2C(F)(F)F)c(OCC(N)=O)c1 [Compound A236, 2-[2-(Aminocarbonylmethoxy)-4-methoxy-6-methylphenyl]-3-(2-methyl-6-trifluoromethyl-phenylamino)-6-fluoroimidazo[1,2-a]pyridine]
- IC50 (SGLT2): 0.01 to 1 µM
- IC50 (SGLT1): 1 to 10 µM

SMILES: COc1cc(C)c(-c2nc3c(F)cc(F)cn3c2Nc2c(C)cccc2C)c(OCC(N)=O)c1 [Compound A237, 2-[2-(Aminocarbonylmethoxy)-4-methoxy-6-methylphenyl]-3-(2,6-dimethylphenylamino)-6,8-difluoroimidazo[1,2-a]pyridine]
- IC50 (SGLT2): 0.01 to 1 µM
- IC50 (SGLT1): 1 to 10 µM

SMILES: COc1cc(C)c(-c2nc3ccc(F)cn3c2Nc2c(Br)cc(F)cc2Br)c(OCC(N)=O)c1 [Compound A238, 2-[2-(Aminocarbonylmethoxy)-4-methoxy-6-methylphenyl]-3-(2,6-dibromo-4-fluorophenyl-amino)-6-fluoroimidazo[1,2-a]pyridine]
- IC50 (SGLT2): 0.01 to 1 µM
- IC50 (SGLT1): 1 to 10 µM

SMILES: COc1cc(C)c(-c2nc3ccc(F)cn3c2Nc2c(Br)cc(C)cc2Br)c(OCC(N)=O)c1 [Compound A239, 2-[2-(Aminocarbonylmethoxy)-4-methoxy-6-methylphenyl]-3-(2,6-dibromo-4-methylphenyl-amino)-6-fluoroimidazo[1,2-a]pyridine]
- IC50 (SGLT2): 0.01 to 1 µM
- IC50 (SGLT1): 0.01 to 1 µM

SMILES: CCc1cccc(OCC(N)=O)c1-c1nc2ccc(F)cn2c1Nc1c(C)cccc1C [Compound A240, 2-[2-(Aminocarbonylmethoxy)-6-ethylphenyl]-3-(2,6-dimethylphenylamino)-6-fluoroimidazo-[1,2-a]pyridine]
- IC50 (SGLT2): 0.01 to 1 µM
- IC50 (SGLT1): 1 to 10 µM
